Patent publication US20080090805A1, “CB-1 MODULATING COMPOUNDS AND THEIR USE” (ACADIA PHARMACEUTICALS INC., priority 2005, published 2008)

Molecular target: CB1 (mutant) (Homo sapiens, UniProt P21554)
Assay: R-SAT functional receptor assay, CB1 (mutant, truncated after amino acid 417)
Assay type: cell-based
Conditions: Appendix A, R-SAT CB1; for IC50: receptor form (mutant or wild-type) not stated, read-out: pIC50 (converted); for Emax: receptor form not stated, relative to SR141716 (100%), read-out: % Inhibition

CB1 (mutant), sequence (P21554 1-417, change not shown): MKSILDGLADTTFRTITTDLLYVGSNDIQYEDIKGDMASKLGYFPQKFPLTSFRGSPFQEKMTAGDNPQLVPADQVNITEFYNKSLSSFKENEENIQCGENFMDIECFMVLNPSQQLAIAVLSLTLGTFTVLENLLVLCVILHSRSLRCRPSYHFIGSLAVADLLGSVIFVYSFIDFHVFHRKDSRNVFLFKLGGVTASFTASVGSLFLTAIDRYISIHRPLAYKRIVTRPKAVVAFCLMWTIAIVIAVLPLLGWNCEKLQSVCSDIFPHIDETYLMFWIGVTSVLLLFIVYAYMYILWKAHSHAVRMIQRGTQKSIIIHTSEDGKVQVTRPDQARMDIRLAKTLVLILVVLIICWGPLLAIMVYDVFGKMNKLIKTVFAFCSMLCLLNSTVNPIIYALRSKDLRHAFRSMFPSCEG

SMILES | IC50 [nM] | Emax [%]
O=C(NNC(=O)c1ccc2c(c1)N=C(c1ccc(Br)cc1)c1ccccc1S2)c1ccccc1 | 251 | 88
CCCC1=Nc2cc(C(=O)NCCc3ccc(SC)cc3)ccc2Sc2ccccc21 | 251 | 103
CC(C)NC(=O)c1ccc2c(c1)N=C(c1ccccc1F)c1ccccc1S2 | 251 | 82
CCCC1=Nc2cc(C(=O)N3CCN(c4cccc(C(F)(F)F)c4)CC3)ccc2Sc2ccccc21 | 251 | 91
O=C(NC1CCCCC1)c1ccc2c(c1)N=C(c1ccccc1Cl)c1ccccc1S2 | 251 | 67
CCCCN(C)C(=O)c1ccc2c(c1)N=C(c1ccccc1F)c1ccccc1S2 | 251 | 77
CCCC1=Nc2cc(C(=O)NCCCN3CCC(c4cc(Cl)ccc4C)CC3)ccc2Sc2ccccc21 | 316 | 117
CCCC1=Nc2cc(C(=O)NCCCN3CCN(c4cc(C)ccc4C)CC3)ccc2Sc2ccccc21 | 316 | 126
O=C(NCc1ccccn1)c1ccc2c(c1)N=C(c1ccccn1)c1ccccc1S2 | 316 | 81
CCCCC1=Nc2cc(C(=O)N3CCN(c4ccc(C)cc4C)CC3)ccc2Sc2ccccc21 | 316 | 104
CCCC1=Nc2cc(C(=O)NCc3ccccc3)ccc2Sc2ccccc21 | 20 | 111
CN(NC(=O)c1ccc2c(c1)N=C(c1ccccc1F)c1ccccc1S2)C1CCCCC1 | 316 | 74
COc1ccccc1C1=Nc2cc(C(=O)NC3CCCCC3)ccc2Sc2ccccc21 | 316 | 72
Cc1cccnc1C1=Nc2cc(C(=O)NCc3ccco3)ccc2Sc2ccccc21 | 316 | 83
NS(=O)(=O)c1ccc(CNC(=O)C2C=C3N=C(N4CCCCC4)c4ccccc4SC3=CC2)cc1 (stereo not shown) | 398 | 78
O=C(NC1CCCC1)c1ccc2c(c1)N=C(c1ccccc1F)c1ccccc1S2 | 398 | 79

Now from value to molecule:

IC50 [nM] | Emax [%] | SMILES
50.1 | 91 | O=C(NCCc1ccccn1)c1ccc2c(c1)N=C(c1cccc(F)c1)c1ccccc1S2
251 | 105 | Cc1ccc(N2CCN(C(=O)c3ccc4c(c3)N=C(CC(C)C)c3ccccc3S4)CC2)c(C)c1
251 | 97 | CCCC1=NC2=C(CCC(C(=O)N3CCN(c4ccccc4F)CC3)=C2)Sc2ccccc21
251 | 83 | Cc1cc(Cl)ccc1C1=Nc2cc(C(=O)NC3CCCCC3)ccc2Sc2ccccc21
251 | 77 | CCCC1=Nc2cc(C(=O)NC3CCN(C(=O)OCC)CC3)ccc2Sc2ccccc21
251 | 62 | COc1ccc(C2=Nc3cc(C(=O)NC4CCCCNC4=O)ccc3Sc3ccccc32)cc1 (stereo not shown)
251 | 51 | O=C(NCCc1ccncc1)c1ccc2c(c1)N=C(c1ccccn1)c1ccccc1S2
316 | 98 | CCCC1=Nc2cc(C(=O)NCCCN3CCOCC3)ccc2Sc2ccccc21
316 | 69 | COCCNC(=O)c1ccc2c(c1)N=C(c1ccc(Cl)cc1Cl)c1ccccc1S2
316 | 67 | O=C(NCc1cccnc1)c1ccc2c(c1)N=C(c1ccccn1)c1ccccc1S2
316 | 82 | CCCCC1=Nc2cc(C(=O)NN3CCCCC3)ccc2Sc2ccccc21
316 | 72 | O=C(NCCc1ccncc1)c1ccc2c(c1)N=C(c1ccc(Cl)cc1Cl)c1ccccc1S2
316 | 82 | O=C(NCCc1ccncc1)c1ccc2c(c1)N=C(c1ccccc1Cl)c1ccccc1S2
316 | 77 | O=C(NCCc1cccnc1)c1ccc2c(c1)N=C(c1ccccn1)c1ccccc1S2
398 | 89 | CONC(=O)c1ccc2c(c1)N=C(c1cccc(Cl)c1)c1ccccc1S2
398 | 91 | CCCC1=Nc2cc(C(=O)NCC3C=CC4=C(C3)OCO4)ccc2Sc2ccccc21 (stereo not shown)
